Structures are written as SMILES.

The record followed here is patent US7034048B2, “Gastrin and cholecystokinin receptor ligands (III)” (James Black Foundation Limited, priority 2000, dated 2006).

This test addresses T1, gastrin (CCK2) receptors (Rattus norvegicus, UniProt P30553).
T1 construct: The stomach was excised and flushed with ca. 1 ml of unbuffered physiological saline solution; from tissue; host or cells: isolated, lumen-perfused stomach of immature rats (33-50 g, ca. 21 days old)
T1 sequence (P30553 1-452): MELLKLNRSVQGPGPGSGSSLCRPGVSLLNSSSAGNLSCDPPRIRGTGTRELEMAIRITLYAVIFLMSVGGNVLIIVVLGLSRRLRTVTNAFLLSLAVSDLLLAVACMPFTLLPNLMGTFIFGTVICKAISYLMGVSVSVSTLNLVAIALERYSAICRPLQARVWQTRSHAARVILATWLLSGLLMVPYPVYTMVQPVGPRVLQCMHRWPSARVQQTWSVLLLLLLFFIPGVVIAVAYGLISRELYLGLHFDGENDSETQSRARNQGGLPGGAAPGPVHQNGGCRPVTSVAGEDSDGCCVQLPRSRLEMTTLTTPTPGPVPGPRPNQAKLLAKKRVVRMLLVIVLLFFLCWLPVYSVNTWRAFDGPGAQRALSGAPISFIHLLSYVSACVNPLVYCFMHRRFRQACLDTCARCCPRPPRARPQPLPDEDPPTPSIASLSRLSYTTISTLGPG
Nature of the test: immature rat stomach assay, gastrin (CCK2) antagonist activity against pentagastrin-stimulated acid secretion. The following applies: isolated immature rat stomach, 60 min incubation, then cumulative pentagastrin dose-response curves, read-out: Rat Stomach pKB (converted). The protocol:
The compounds of the examples were tested for gastrin (CCK2) antagonist activity in an immature rat stomach assay. The procedure was as follows: The oesophagus of immature rats (33–50 g, ca. 21 days old) was ligated at the level of the cardiac sphincter and the duodenal sphincter was cannulated. The stomach was excised and flushed with ca. 1 ml of unbuffered physiological saline solution. The fundus was punctured and cannulated. A further 4–5 ml of unbuffered solution was flushed through the stomach to ensure the preparation was not leaking. The stomach was lowered into a jacketed organ bath containing 40 ml of buffered solution containing 3×10^−8 M 5-methylfurmethide, maintained at 37° and gassed vigorously with 95% O2/5% CO2. The stomach was continuously perfused at a rate of 1 ml min^−1 with unbuffered solution gassed with 100% O2 with the perfusate passing over an internally referenced pH-electrode fixed 12 cm above the stomach. After 120 min of stabilisation the drugs were added directly to the serosal solution in the organ bath and after a further 60 min cumulative pentagastrin dose-response curves were started. Changes in acid secretion were monitored and the curves analysed according to Black et al., Br. J. Pharmacol. 1985, 86, 581.

In the case of `O=C(O)c1ccc2[nH]c(-c3nc(C4CCCCC4)[nH]c3COC34CC5CC(CC(C5)C3)C4)nc2c1` [Example 3, 2-[5-(Adamantan-1-yloxymethyl)-2-cyclohexyl-1H-imidazole-4-yl]-1H-benzoimidazole-5-carboxylic acid], the Kb is 3390 nM.

As to `O=C(O)c1ccc2oc(-c3nc(C4CCCCC4)[nH]c3COC34CC5CC(CC(C5)C3)C4)nc2c1` [Example 1, 2-[5-(Adamantan-1-yloxymethyl)-2-cyclohexyl-1H-imidazole-4-yl]-benzooxazole-5-carboxylic acid], the Kb is 3310 nM.

`O=C(O)c1ccc2nc(-c3nc(C4CCCCC4)[nH]c3COC34CC5CC(CC(C5)C3)C4)oc2c1` [Example 2, 2-[5-(Adamantan-1-yloxymethyl)-2-cyclohexyl-1H-imidazole-4-yl]-benzooxazole-6-carboxylic acid]: the Kb was 1620 nM.

Consider `O=C(O)Cc1ccc2oc(-c3nc(C4CCCCC4)[nH]c3COC34CC5CC(CC(C5)C3)C4)nc2c1` [Example 5, {2-[5-(Adamantan-1-yloxymethyl)-2-cyclohexyl-1H-imidazole-4-yl]-benzooxazol-5-yl}-acetic acid], for which the Kb is 2040 nM.

For the molecule `O=C(O)c1cccc2[nH]c(-c3nc(C4CCCCC4)[nH]c3COC34CC5CC(CC(C5)C3)C4)nc12` [Example 4, 2-[5-(Adamantan-1-yloxymethyl)-2-cyclohexyl-1H-imidazole-4-yl]-1H-benzoimidazole-4-carboxylic acid], the Kb was 372 nM.
